{"source": "ChEMBL document CHEMBL5038667", "about": "“Discovery of an Amino Acid-Modified Near-Infrared Aza-BODIPY Photosensitizer as an Immune Initiator for Potent Photodynamic Therapy in Melanoma” (J Med Chem, 2022)", "key": {"B16-F10 [1]": {"test_system": "B16-F10", "assay": "Induction of apoptosis in mouse B16-F10 cells assessed as necrotic cells at 250 nM incubated for 16 hrs followed by irradiated with 54 J/cm^2 light dose by Annexin V-FITC/PI based flow cytometric analysis (reference value: 3.75 %)", "format": "functional"}, "[2]": {"assay": "Drug localisation in lysosome of mouse B16-F10 cells at 5 uM incubated for 16 hrs by Lyso Tracker Green based confocal laser scanning microscopy analysis", "format": "ADME, subcellular", "details": "b16-f10, 16 h"}, "B16-F10 [3]": {"test_system": "B16-F10", "assay": "Antitumor immunity against mouse B16-F10 cells assessed as surface translocation of CRT at 250 nM incubated for 16 hrs followed by irradiated with 54 J/cm^2 light dose and further incubated for 6 hrs by Alexa Fluor 488/Hoechst 33342 staining based confocal laser scanning microscopy", "format": "functional, cell-based"}, "A-375 [4]": {"test_system": "A-375", "assay": "Induction of apoptosis in human A-375 cells assessed as total apoptotic cells at 50 nM incubated for 16 hrs followed by irradiated with 54 J/cm^2 light dose by Annexin V-FITC/PI based flow cytometric analysis (reference value: 4.79 %)", "format": "functional"}, "[5]": {"assay": "Lipophilicity, logP of compound", "format": "physicochemical", "details": "octanol/water"}, "B16-F10 [6]": {"test_system": "B16-F10", "assay": "Antitumor immunity against mouse B16-F10 cells assessed as release of HMGB1 at 50 nM incubated for 16 hrs followed by irradiated with 54 J/cm^2 light dose and further incubated for 6 hrs by Alexa Fluor 488/Hoechst 33342 staining based confocal laser scanning microscopy", "format": "functional, cell-based"}, "B16-F10 [7]": {"test_system": "B16-F10", "assay": "Photodynamic therapy in mouse B16-F10 cells implanted in C57BL/6 mouse model assessed as increase infiltration of CD4+ T cells measured after 3 days by immunofluorescence staining based analysis", "format": "functional, cell-based", "details": "time 3.0 day"}, "[8]": {"assay": "Drug localisation in endoplasmic reticulum of human A-375 cells at 5 uM incubated for 16 hrs by ER Tracker Green based confocal laser scanning microscopy analysis", "format": "ADME, subcellular", "details": "a-375, 16 h"}, "A-375 [9]": {"test_system": "A-375", "assay": "Induction of apoptosis in human A-375 cells assessed as total apoptotic cells at 10 nM incubated for 16 hrs followed by irradiated with 54 J/cm^2 light dose by Annexin V-FITC/PI based flow cytometric analysis (reference value: 4.79 %)", "format": "functional"}, "A-375 [10]": {"test_system": "A-375", "assay": "Induction of ROS generation in human A-375 cells assessed as cells with high intracellular ROS levels at 20 nM incubated for 16 hrs followed by irradiated with 54 J/cm2 light dose by H2DCFDA fluorescent probe based flow cytometry method (reference value: 2.09 %)", "format": "functional"}, "B16-F10 [11]": {"test_system": "B16-F10", "assay": "Induction of apoptosis in mouse B16-F10 cells assessed as late apoptotic cells at 250 nM incubated for 16 hrs followed by irradiated with 54 J/cm^2 light dose by Annexin V-FITC/PI based flow cytometric analysis (reference value: 2.32 %)", "format": "functional"}, "B16-F10 [12]": {"test_system": "B16-F10", "assay": "Photodynamic therapy in mouse B16-F10 cells implanted in C57BL/6 mouse model assessed as increase in infiltration of CD4+ T cells by APC/FITC/PE staining based flow cytometric analysis (reference value: 4.85 %)", "format": "functional"}, "B16-F10 [13]": {"test_system": "B16-F10", "assay": "Biodistribution in tumor of C57BL/6 mouse harboring mouse B16-F10 cells at 2 mg/kg, iv measured after 12 hrs by flourescence imaging assay", "format": "ADME, organism-based", "details": "in vivo"}, "B16-F10 [14]": {"test_system": "B16-F10", "assay": "Induction of apoptosis in mouse B16-F10 cells assessed as viable cells at 250 nM incubated for 16 hrs followed by irradiated with 54 J/cm^2 of light dose by Annexin V-FITC/PI based flow cytometric analysis (reference value: 87.45 %)", "format": "functional", "details": "B16-F10, light or radiation study, read-out: Activity"}, "A-375 [15]": {"test_system": "A-375", "assay": "Dark toxicity against human A-375 cells assessed as reduction in cell viability incubated for 16 hrs by CCK-8 assay", "format": "functional, cell-based", "details": "A-375, 16 h"}, "A-375 [16]": {"test_system": "A-375", "assay": "Induction of ROS generation in human A-375 cells assessed as cells with high intracellular ROS levels at 100 nM incubated for 16 hrs followed by irradiated with 54 J/cm2 light dose by H2DCFDA fluorescent probe based flow cytometry method (reference value: 2.09 %)", "format": "functional"}, "B16-F10 [17]": {"test_system": "B16-F10", "assay": "Induction of apoptosis in mouse B16-F10 cells assessed as viable cells at 50 nM incubated for 16 hrs followed by irradiated with 54 J/cm^2 of light dose by Annexin V-FITC/PI based flow cytometric analysis (reference value: 87.45 %)", "format": "functional", "details": "B16-F10, light or radiation study, read-out: Activity"}, "B16-F10 [18]": {"test_system": "B16-F10", "assay": "Induction of apoptosis in mouse B16-F10 cells assessed as necrotic cells at 10 nM incubated for 16 hrs followed by irradiated with 54 J/cm^2 light dose by Annexin V-FITC/PI based flow cytometric analysis (reference value: 3.75 %)", "format": "functional"}, "B16-F10 [19]": {"test_system": "B16-F10", "assay": "Antitumor immunity against mouse B16-F10 cells assessed as release of HMGB1 at 250 nM incubated for 16 hrs followed by irradiated with 54 J/cm^2 light dose and further incubated for 6 hrs by Alexa Fluor 488/Hoechst 33342 staining based confocal laser scanning microscopy", "format": "functional, cell-based"}, "B16-F10 [20]": {"test_system": "B16-F10", "assay": "Antitumor immunity against mouse B16-F10 cells assessed as release of HMGB1 at 10 nM incubated for 16 hrs followed by irradiated with 54 J/cm^2 light dose and further incubated for 6 hrs by Alexa Fluor 488/Hoechst 33342 staining based confocal laser scanning microscopy", "format": "functional, cell-based"}, "B16-F10 [21]": {"test_system": "B16-F10", "assay": "Antitumor immunity against mouse B16-F10 cells assessed as surface translocation of CRT at 10 nM incubated for 16 hrs followed by irradiated with 54 J/cm^2 light dose and further incubated for 6 hrs by Alexa Fluor 488/Hoechst 33342 staining based confocal laser scanning microscopy", "format": "functional, cell-based"}, "A-375 [22]": {"test_system": "A-375", "assay": "Induction of apoptosis in human A-375 cells assessed as total apoptotic cells at 250 nM incubated for 16 hrs followed by irradiated with 54 J/cm^2 light dose by Annexin V-FITC/PI based flow cytometric analysis (reference value: 4.79 %)", "format": "functional"}, "B16-F10 [23]": {"test_system": "B16-F10", "assay": "Induction of apoptosis in mouse B16-F10 cells assessed as early apoptotic cells at 250 nM incubated for 16 hrs followed by irradiated with 54 J/cm^2 light dose by Annexin V-FITC/PI based flow cytometric analysis (reference value: 6.48 %)", "format": "functional"}, "[24]": {"assay": "Biodistribution in kidneys of C57BL/6 mouse harboring mouse B16-F10 cells at 2 mg/kg, iv measured after 12 hrs by flourescence imaging assay", "format": "ADME, organism-based, Kidney", "details": "in vivo"}, "[25]": {"assay": "Drug localisation in mitochondria of human A-375 cells at 5 uM incubated for 16 hrs by Mito Tracker Green FM based confocal laser scanning microscopy analysis", "format": "ADME", "details": "a-375, 16 h"}}, "note": "Active and inactive are the calls of the source. No cut-off for these calls is given here.", "data": [{"smiles": "COc1ccc(C2=[N+]3C(=Nc4c(-c5ccccc5)c5c(n4[B-]3(F)F)-c3ccc(OCC(=O)N[C@@H](CC(=O)O)C(=O)O)cc3CC5)C(c3ccccc3)=C2I)cc1", "values": [{"measurement": "Activity", "setting": "B16-F10 [1]", "result": 0.29, "unit": "%"}, {"measurement": "Drug uptake", "setting": "[2]", "result": "Active"}, {"measurement": "Activity", "setting": "B16-F10 [3]", "result": "inactive"}, {"measurement": "Activity", "setting": "A-375 [4]", "result": 66.46, "unit": "%"}, {"measurement": "logP", "setting": "[5]", "result": -0.77}, {"measurement": "Activity", "setting": "B16-F10 [6]", "result": "Active"}, {"measurement": "Activity", "setting": "B16-F10 [7]", "result": "Active"}, {"measurement": "Drug uptake", "setting": "[8]", "result": "Active"}, {"measurement": "Activity", "setting": "A-375 [9]", "result": 6.68, "unit": "%"}, {"measurement": "Activity", "setting": "A-375 [10]", "result": 4.57, "unit": "%"}, {"measurement": "Activity", "setting": "B16-F10 [11]", "result": 20.54, "unit": "%"}, {"measurement": "Activity", "setting": "B16-F10 [12]", "result": 8.11, "unit": "%"}, {"measurement": "Drug uptake", "setting": "B16-F10 [13]", "result": "Active"}, {"measurement": "viability at 0.25 µM", "setting": "B16-F10 [14]", "result": 3.76, "unit": "%"}, {"measurement": "IC50", "setting": "A-375 [15]", "result": "> 250", "unit": "µM"}, {"measurement": "Activity", "setting": "A-375 [16]", "result": 53.15, "unit": "%"}, {"measurement": "viability at 0.05 µM", "setting": "B16-F10 [17]", "result": 41.9, "unit": "%"}, {"measurement": "Activity", "setting": "B16-F10 [18]", "result": 0.88, "unit": "%"}, {"measurement": "Activity", "setting": "B16-F10 [19]", "result": "inactive"}, {"measurement": "Activity", "setting": "B16-F10 [20]", "result": "inactive"}, {"measurement": "Activity", "setting": "B16-F10 [21]", "result": "inactive"}, {"measurement": "Activity", "setting": "A-375 [22]", "result": 93.81, "unit": "%"}, {"measurement": "Activity", "setting": "B16-F10 [23]", "result": 75.41, "unit": "%"}, {"measurement": "Drug uptake", "setting": "[24]", "result": "Active"}, {"measurement": "Drug uptake", "setting": "[25]", "result": "Active"}]}]}
